Data set [1] deals with B and T cells isolated from primary tonsillar lymphocytes. The data set can be described thus: Viability of primary tonsillar lymphocytes, 72 h. The format is cell-based, human. The conditions noted are these: primary tonsillar lymphocytes of two donors, compared with SUDHL5.
The subject of the next data set is H2BK20ac. Kind of data set: ChIP-seq for H2BK20ac in SUDHL5. In kind it is cell-based, human. To be noted: SUDHL5, 1 nM, 1 hour. The procedure: 25–30 million cells were treated with TCIP3 or DMSO for indicated timepoints. Cells were washed in PBS containing TCIP3 or DMSO and crosslinked for 11 min in CiA Fix Buffer (50 mM HEPES pH 8.0, 1 mM EDTA, 0.5 mM EGTA, 100 mM NaCl) with addition of formaldehyde to a final concentration of 1%. The crosslinking reaction was quenched by glycine added at 0.125 M final concentration. Crosslinked cells were centrifuged at 1,000 × g for 5 min. […] Library size distributions were confirmed using an Agilent Bioanalyzer and High Sensitivity DNA reagents (Agilent 5067) and concentrations determined by qPCR. […]
The data quality was checked using fastq (https://www.bioinformatics.babraham.ac.uk/projects/fastqc/). The raw reads were trimmed from adapters with cutadapt (parameters: -a […] -A […]) and raw reads were aligned to hg38 human genome assembly using bowtie2 (parameters: --local --maxins 1000). Low quality reads, duplicated reads and reads with multiple alignments were removed using samtools[120] and Picard (https://broadinstitute.github.io/picard/). macs2[121] was used to map position of peaks with FDR cutoff of 0.05. […] All browser tracks and metaprofiles shown were calculated with sequence-depth-normalized, replicate-merged (bigWigMerge[125]) and, for ChIP-seq, input-subtracted data (deeptools bigWigCompare). […]

SMILES strings stand for the structures. Entries after “also recorded” stand apart in the source; their conditions may differ.

In the case of `CNC(=O)COc1cc2cc(Nc3nc(N4CCC(C(=O)N5CCN(CCC(=O)N6CCC(n7nc(N8CCCc9cc(-c%10cnn(C)c%10)c(C(F)F)cc98)c8c7CCN(C(=O)NC)C8)CC6)CC5)CC4)ncc3Cl)cc(OC)c2n(C)c1=O` [TCIP3], the “cytotoxicity” value in data set [1] is reported as “substantially reduced cytotoxicity; also recorded: without exhibiting toxicity”. For the same molecule, in the data set on H2BK20ac, the H2BK20ac peaks gained amounted to 936 and the H2BK20ac peaks lost was 4,346.

These data come from doi:10.1101/2025.03.14.643404, “A Bivalent Molecular Glue Linking Lysine Acetyltransferases to Oncogene-induced Cell Death” (bioRxiv, 2025).
